In assay [1] the target is CDK9/T1 (Homo sapiens, UniProt P50750). The experiment in a line: ADP Glo Kinase assay CDK9/T1. The settings on record: CDK9T1; read-out: CDK inhibition, Ki (μM) CDK9T1. The assay is classed as biochemical. In a few lines: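 Luminescent ADP detection measured activity after a 40 min, 37° C ATP-initiated reaction, using RB-CTF for CDK4/D1 and CDK6/D3 and RBER-IRStide for CDK9/T1. Controls lacked or contained kinase. Values: IC50 by four-parameter nonlinear regression, Ki from ATP Km.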
CDK9/T1, sequence (P50750 whole entry): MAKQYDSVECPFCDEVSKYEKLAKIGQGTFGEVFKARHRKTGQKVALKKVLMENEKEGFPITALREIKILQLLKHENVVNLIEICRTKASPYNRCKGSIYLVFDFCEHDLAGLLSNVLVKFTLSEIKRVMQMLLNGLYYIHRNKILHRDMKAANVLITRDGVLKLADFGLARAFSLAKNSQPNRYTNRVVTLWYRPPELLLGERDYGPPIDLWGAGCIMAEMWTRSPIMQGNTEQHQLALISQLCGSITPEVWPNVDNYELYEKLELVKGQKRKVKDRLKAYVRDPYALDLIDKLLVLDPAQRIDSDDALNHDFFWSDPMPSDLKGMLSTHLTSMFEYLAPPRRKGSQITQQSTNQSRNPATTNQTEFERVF
CDK9/T1, sequence (O60563 whole entry partner): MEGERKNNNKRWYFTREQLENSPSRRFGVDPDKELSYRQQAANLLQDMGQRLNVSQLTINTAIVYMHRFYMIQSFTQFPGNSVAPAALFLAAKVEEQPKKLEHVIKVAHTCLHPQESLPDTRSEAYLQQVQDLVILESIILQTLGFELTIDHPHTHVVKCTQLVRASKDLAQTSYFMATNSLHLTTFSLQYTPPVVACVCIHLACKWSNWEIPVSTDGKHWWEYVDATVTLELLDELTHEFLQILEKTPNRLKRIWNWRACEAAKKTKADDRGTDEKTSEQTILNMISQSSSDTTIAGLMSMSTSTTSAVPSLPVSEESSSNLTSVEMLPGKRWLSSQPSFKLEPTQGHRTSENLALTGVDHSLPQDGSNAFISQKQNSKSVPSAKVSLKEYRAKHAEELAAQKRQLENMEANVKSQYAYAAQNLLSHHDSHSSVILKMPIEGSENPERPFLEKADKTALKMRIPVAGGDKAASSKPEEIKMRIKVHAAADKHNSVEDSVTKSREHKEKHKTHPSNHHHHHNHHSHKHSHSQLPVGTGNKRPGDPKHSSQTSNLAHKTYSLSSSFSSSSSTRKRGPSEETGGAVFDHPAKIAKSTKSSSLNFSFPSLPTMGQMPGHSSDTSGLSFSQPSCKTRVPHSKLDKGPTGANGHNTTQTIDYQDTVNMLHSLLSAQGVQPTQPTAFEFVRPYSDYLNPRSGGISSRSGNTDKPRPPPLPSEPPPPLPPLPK

Assay [2] deals with T1, CDKs and other kinases (Homo sapiens, UniProt P06493).
T1 construct: other: CDK1B; residual activity (%) at 10 μM CDK1B; compound at 10 μM
T1 sequence (P06493 whole entry): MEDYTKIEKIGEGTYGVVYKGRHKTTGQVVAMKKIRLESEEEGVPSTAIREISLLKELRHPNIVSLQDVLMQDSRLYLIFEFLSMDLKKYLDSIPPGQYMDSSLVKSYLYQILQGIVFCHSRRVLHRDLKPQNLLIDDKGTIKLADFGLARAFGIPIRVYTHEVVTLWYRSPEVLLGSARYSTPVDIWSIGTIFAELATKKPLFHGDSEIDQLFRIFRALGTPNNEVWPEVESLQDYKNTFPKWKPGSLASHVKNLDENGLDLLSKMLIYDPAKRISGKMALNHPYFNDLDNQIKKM
The experiment in a line: Radiometric kinase assay (Eurofins Pharma Discovery or Reaction Biology Corporation Kinase Profiler). The format is biochemical. The settings on record: CDK1B; read-out: CDK inhibition, Ki (μM) CDK1B. In a few lines: (§1)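 Other CDKs and further kinases were profiled externally by radiometric assay. In-house ADP Glo assays covered CDK4/D1 and CDK6/D3 (RB-CTF substrate, pH 7.5 Tris buffer with MgCl2, DTT, BSA) and CDK9/T1 (RBER-IRStide substrate), 40 min at 37° C.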

Assay [3] has as its target T2, CDKs and other kinases (Homo sapiens, UniProt P50613).
T2 construct: other: CDK7H; residual activity (%) at 10 μM CDK7H; compound at 10 μM
The description is as above. The format is biochemical. The settings on record: CDK7H; read-out: CDK inhibition, Ki (μM) CDK7H. In a few lines:
as §1

Assay [4] concerns the target T3, CDKs and other kinases (Homo sapiens, UniProt P24941).
T3 construct: other: CDK2A; residual activity (%) at 10 μM CDK2A; compound at 10 μM
The assay is described as above. The assay is classed as biochemical. The settings on record: CDK2A; read-out: CDK inhibition, Ki (μM) CDK2A. In a few lines:
as §1

The subject of assay [5] is T47D. Kind of assay: MTT cell viability assay, T47D breast cancer cell line (72 h). The format is cell-based. The settings on record: Homo sapiens, read-out: 72 h Antiproliferative activity, GI50 (μmol/L) ± SD. As for the experimental part: (§2) Compounds from Example 1 were subjected to a standard MTT (3-(4,5-dimethylthiazol-2-yl)-2,5-diphenyltetrazolium bromide) and resazurin assays on solid tumour cell lines and leukemia cell lines, respectively, as previously reported (Wang S et al., J Med Chem 47:1662-1675, 2004 and Diab S. et al. CheMedChem 9:962-972, 2014). Compound concentrations required to inhibit 50% of cell growth (GI50) were calculated using non-linear regression analysis.
(Tetrazolium assays rely on reduction of a dye to a coloured formazan, in cell work by metabolically active cells.)

The target in assay [6] is CDK4/D1 (Homo sapiens, UniProt P11802). Kind of assay: ADP Glo Kinase assay CDK4/D1. The assay is classed as biochemical. The settings on record: CDK4D1; read-out: CDK inhibition, Ki (μM) CDK4D1. In a few lines: (§3)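 ADP Glo luminescence, in-house: CDK4/D1, CDK6/D3 on RB-CTF substrate (Tris pH 7.5, MgCl2, DTT, BSA); CDK9/T1 on RBER-IRStide. Reaction 40 min, 37° C after ATP addition. 10-point 1:3 series, 10 μM to 0.5 nM. IC50 by 4-parameter logistic; Ki derived using ATP Km.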
CDK4/D1, sequence (P11802 whole entry): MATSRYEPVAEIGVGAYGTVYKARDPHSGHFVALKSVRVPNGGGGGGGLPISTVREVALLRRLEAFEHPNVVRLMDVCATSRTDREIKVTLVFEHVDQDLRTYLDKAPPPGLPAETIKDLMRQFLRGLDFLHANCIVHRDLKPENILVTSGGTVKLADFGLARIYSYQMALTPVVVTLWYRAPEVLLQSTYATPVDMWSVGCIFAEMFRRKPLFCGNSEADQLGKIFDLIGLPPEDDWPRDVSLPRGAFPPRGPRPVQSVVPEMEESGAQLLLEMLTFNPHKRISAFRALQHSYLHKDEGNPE
CDK4/D1, sequence (P24385 whole entry partner): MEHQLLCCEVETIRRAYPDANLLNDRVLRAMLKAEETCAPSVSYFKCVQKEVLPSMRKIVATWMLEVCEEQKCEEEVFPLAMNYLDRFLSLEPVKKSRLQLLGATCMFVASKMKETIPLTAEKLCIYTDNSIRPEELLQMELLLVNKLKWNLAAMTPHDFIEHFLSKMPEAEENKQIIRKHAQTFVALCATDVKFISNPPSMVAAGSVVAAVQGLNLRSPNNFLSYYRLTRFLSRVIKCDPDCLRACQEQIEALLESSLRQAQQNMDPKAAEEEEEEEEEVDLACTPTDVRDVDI
For orientation: In ADP-Glo the light output rises with the ADP produced.

Assay [7] has as its system MDA-MB-231. Kind of assay: MTT cell viability assay, MDA-MB-231 breast cancer cell line (72 h). The format is cell-based. The settings on record: Homo sapiens, MDA-MB-231, 72 h, read-out: 72 h Antiproliferative activity, GI50 (μmol/L) ± SD. The procedure: as §2
Assay [8] has as its system MOLM13. Kind of assay: Resazurin cell viability assay, MOLM13 leukaemia cell line (72 h). The format is cell-based. The settings on record: Homo sapiens, MOLM-13, MOLM13, 72 h, read-out: 72 h Antiproliferative activity, GI50 (μmol/L) ± SD. The procedure: as §2
(The colour change of resazurin is a common sign of viable cells or microbes.)

Assay [9] has as its system PC3. Kind of assay: MTT cell viability assay, PC3 prostate cancer cell line (72 h). The format is cell-based. The settings on record: Homo sapiens, PC-3, PC3, 72 h, read-out: 72 h Antiproliferative activity, GI50 (μmol/L) ± SD. The procedure: as §2
The test system of assay [10] is NB4. Kind of assay: Resazurin cell viability assay, NB4 leukaemia cell line (72 h). The format is cell-based. The settings on record: Homo sapiens, NB-4, NB4, 72 h, read-out: 72 h Antiproliferative activity, GI50 (μmol/L) ± SD. The procedure:
as §2

Assay [11] deals with CDK6/D3 (Homo sapiens, UniProt Q00534). The experiment in a line: ADP Glo Kinase assay CDK6/D3. The settings on record: CDK6D3; read-out: CDK inhibition, Ki (μM) CDK6D3. The assay is classed as biochemical. In a few lines:
as §3

In assay [12] the test system is MDA-MB-468. Kind of assay: MTT cell viability assay, MDA-MB-468 breast cancer cell line (72 h). The assay is classed as cell-based. The settings on record: Homo sapiens, MDA-MB-468, 72 h, read-out: 72 h Antiproliferative activity, GI50 (μmol/L) ± SD. The procedure: as §2
The subject of assay [13] is U937. The experiment in a line: Resazurin cell viability assay, U937 leukaemia cell line (72 h). The assay is classed as cell-based. The settings on record: Homo sapiens, U-937, U937, 72 h, read-out: 72 h Antiproliferative activity, GI50 (μmol/L) ± SD. As for the experimental part: as §2
Assay [14] deals with MCF-7. The experiment in a line: MTT cell viability assay, MCF-7 breast cancer cell line (72 h). The format is cell-based. The settings on record: Homo sapiens, MCF7, MCF-7, 72 h, read-out: 72 h Antiproliferative activity, GI50 (μmol/L) ± SD. The procedure: as §2
For assay [15], the system named is A2780. The experiment in a line: MTT cell viability assay, A2780 ovarian cancer cell line (72 h). The assay is classed as cell-based. The settings on record: Homo sapiens, A2780, 72 h, read-out: 72 h Antiproliferative activity, GI50 (μmol/L) ± SD. The procedure: as §2
Assay [16] deals with MDA-MB-453. Kind of assay: MTT cell viability assay, MDA-MB-453 breast cancer cell line (72 h). The format is cell-based. The settings on record: Homo sapiens, MDA-MB-453, 72 h, read-out: 72 h Antiproliferative activity, GI50 (μmol/L) ± SD. As for the experimental part: as §2
The test system of assay [17] is leukemia cell lines. Kind of assay: Resazurin cell viability assay on leukemia cell lines (72 h growth inhibition, GI50). The assay is classed as cell-based. The settings on record: Homo sapiens, MV4-11 cells. An outline of the steps:
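Cells were exposed to compound, then viability was read by MTT (solid tumour lines) or resazurin reduction (leukaemia lines). Non-linear regression gave the concentration inhibiting 50% of cell growth.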

In assay [18] the test system is LNCap. Kind of assay: MTT cell viability assay, LNCap prostate cancer cell line (72 h). The settings on record: Homo sapiens, read-out: 72 h Antiproliferative activity, GI50 (μmol/L) ± SD. The format is cell-based. As for the experimental part: as §2

CDK6/D3, sequence (Q00534 whole entry): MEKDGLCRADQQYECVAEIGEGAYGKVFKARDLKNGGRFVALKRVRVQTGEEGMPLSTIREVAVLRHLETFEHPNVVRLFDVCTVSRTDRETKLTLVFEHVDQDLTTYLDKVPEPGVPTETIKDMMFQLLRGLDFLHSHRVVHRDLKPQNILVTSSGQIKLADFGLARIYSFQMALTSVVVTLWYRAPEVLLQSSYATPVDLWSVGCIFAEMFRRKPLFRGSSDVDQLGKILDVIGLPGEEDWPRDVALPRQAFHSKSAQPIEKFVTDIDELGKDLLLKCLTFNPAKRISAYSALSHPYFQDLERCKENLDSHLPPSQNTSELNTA
CDK6/D3, sequence (P30281 whole entry partner): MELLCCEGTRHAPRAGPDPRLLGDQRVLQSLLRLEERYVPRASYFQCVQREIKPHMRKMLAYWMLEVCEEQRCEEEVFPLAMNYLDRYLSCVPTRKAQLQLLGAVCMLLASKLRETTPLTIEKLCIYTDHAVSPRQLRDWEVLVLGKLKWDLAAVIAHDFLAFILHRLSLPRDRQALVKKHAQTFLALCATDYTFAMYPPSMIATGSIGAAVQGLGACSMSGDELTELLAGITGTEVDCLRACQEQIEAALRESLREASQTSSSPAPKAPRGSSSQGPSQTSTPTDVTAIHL
T2 sequence (P50613 whole entry): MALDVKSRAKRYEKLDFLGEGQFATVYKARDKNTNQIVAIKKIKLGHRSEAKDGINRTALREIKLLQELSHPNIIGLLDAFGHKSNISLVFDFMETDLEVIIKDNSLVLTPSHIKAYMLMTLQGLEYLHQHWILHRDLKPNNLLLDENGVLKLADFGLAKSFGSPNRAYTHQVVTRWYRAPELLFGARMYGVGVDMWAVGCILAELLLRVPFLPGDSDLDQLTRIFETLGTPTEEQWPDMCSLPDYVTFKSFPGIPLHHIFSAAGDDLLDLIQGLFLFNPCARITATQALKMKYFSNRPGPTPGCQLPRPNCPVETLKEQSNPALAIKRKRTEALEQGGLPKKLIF

With `N[C@H]1CC[C@H](Nc2ncc(F)c(-c3cnc4ccc(NCc5ccc(F)cc5)cn34)n2)CC1` [Compound 7, (1r,4r)-N^1-(5-Fluoro-4-(6-((4-fluorobenzyl)amino)imidazo [1,2-a]pyridin-3-yl)pyrimidin-2-yl)cyclohexane-1,4-diamine], the Ki – broadly, a dissociation constant, usually derived from enzyme kinetics or from competition with a known ligand – was determined as 0.006 µM in [1]; 0.42 µM in assay [2]; 0.73 µM in assay [3]; 0.24 µM in [4]; 0.691 µM in [6]; 1.71 µM in [11]. In addition, the GI50 is 0.616 ± 0.086 µmol/L in [5]; 0.035 ± 0.008 µmol/L in [7]; 0.015 ± 0.006 µmol/L in assay [8]; 0.087 ± 0.04 µmol/L in assay [9]; 0.16 ± 0.052 µmol/L in assay [10]; 0.08 ± 0.015 µmol/L in [12]. Besides, the GI50 in [13] was 0.156 ± 0.061 µmol/L; in [14] it was 0.218 ± 0.013 µmol/L; in assay [15], 0.274 ± 0.03 µmol/L; in [16], 0.931 ± 0.269 µmol/L; in assay [17], 0.075 ± 0.011 µM.

In the case of `Cc1cnc(N[C@H]2CC[C@H](N)CC2)nc1-c1cnc2ccc(-c3ccccc3)cn12` [Compound 10, (1r,4r)-N^1-(5-Methyl-4-(6-phenylimidazo[1,2-a]pyridin-3-yl)pyrimidin-2-yl)cyclohexane-1,4-diamine], the Ki in [1] amounted to 0.008 µM; in [2], 1.53 µM; in assay [3], 0.6 µM; in assay [4], 0.43 µM; in assay [6], 2.62 µM; in assay [11] it was 1.54 µM. Further, the GI50 was found to be 0.834 ± 0.066 µmol/L in [5]; 0.418 ± 0.123 µmol/L in assay [7]; 0.019 ± 0.001 µmol/L in assay [8]; 0.289 ± 0.098 µmol/L in [9]; 0.202 ± 0.052 µmol/L in assay [18]; 0.153 ± 0.051 µmol/L in [10]. Also, the GI50 in assay [12] is 0.42 ± 0.07 µmol/L; in [13], 0.156 ± 0.05 µmol/L; in assay [14] it was 0.247 ± 0.014 µmol/L; in assay [15], 0.278 ± 0.032 µmol/L; in assay [16], 0.049 ± 0.012 µmol/L; in assay [17] it was 0.059 ± 0.008 µM.

Values taken from patent US11111245B2, “Derivatives of N-cycloalkyl/heterocycloalkyl-4-(imidazo[1,2-a]pyridine)pyrimidin-2-amine as therapeutic agents” (Aucentra Therapeutics Pty Ltd, priority 2017, dated 2021).
